Measurements published in patent US8580829B2 (Boehringer Ingelheim International GmbH, priority 2010, dated 2013).
pIC50: −log10 of the molar value.

Experiments:
[1] = tested on: synthesis of LTB4 in human whole blood; assay: human whole blood LTB4 production inhibition assay; assay type: cell-based; settings: Homo sapiens, heparinized human whole blood, calcimycin 20 μM; read-out: hWB LTB4 IC50
In short: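 Readout: plasma LTB4 by antibody-based HTRF. Compound added to heparinized human whole blood, 15 min 37° C; calcimycin 20 μM final (PBS pH 7.4), 30 min 37° C; spun 1500×g 5 min, plasma taken.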

[2] = molecular target: T1, recombinant human FLAP protein (Homo sapiens, UniProt P20292); assay: FLAP binding assay (Scintillation Proximity Assay, displacement of [125I]L-691,831); settings: recombinant human FLAP membranes, [125I]L-691,831 probe; read-out: FLAP SPA IC50
T1 construct: made in house; host or cells: Sf9 insect cells (100,000 x g membrane fraction)
T1 sequence (P20292 1-161): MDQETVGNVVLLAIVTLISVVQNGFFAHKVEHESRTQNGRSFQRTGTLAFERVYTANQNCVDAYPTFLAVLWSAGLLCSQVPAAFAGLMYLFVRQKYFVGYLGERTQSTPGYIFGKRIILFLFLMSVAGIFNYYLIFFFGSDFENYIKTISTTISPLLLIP
In short: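 WGA scintillation proximity beads were stirred 1 h with 5 μg of FLAP-containing membrane protein. The membranes came from baculovirus Sf9 cells, Dounce-lysed and spun to a 100,000×g pellet in buffer at pH 7.5.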

Row | Compound | pIC50 [1] | pIC50 [2]
1 | Cc1cc(-c2ccc(C3(c4noc(-c5cnn(C)c5)n4)CCC3)cc2)cnc1N [Example 221, 3-Methyl-5-(4-{1-[5-(1-methyl-1H-pyrazol-4-yl)-[1,2,4]oxadiazol-3-yl]-cyclobutyl}-phenyl)-pyridin-2-ylamine] | 7.33 | 8.72
2 | Cc1nc(-c2ccc(C3(c4noc(-c5cnn(C)c5)n4)CCC3)cc2)cnc1N [Example 222, 3-Methyl-5-(4-{1-[5-(1-methyl-1H-pyrazol-4-yl)-[1,2,4]oxadiazol-3-yl]-cyclobutyl}-phenyl)-pyrazin-2-ylamine] | 7.36 | 8.66
3 | CC(C)(C#N)NC(=O)Cn1cc(-c2nc(C3(c4ccc(-c5cnc(N)nc5)cc4)CCC3)no2)cn1 [Example 223, 2-[4-(3-{1-[4-(2-Amino-pyrimidin-5-yl)-phenyl]-cyclobutyl}-[1,2,4]oxadiazol-5-yl)-pyrazol-1-yl]-N-(cyano-dimethyl-methyl)-acetamide] | 6.34 | 8.74
4 | Nc1ncc(-c2ccc(C3(c4noc(-c5cnn(CC(=O)NCC6CCCO6)c5)n4)CCC3)cc2)cn1 (stereo not shown) [Example 224, 2-[4-(3-{1-[4-(2-Amino-pyrimidin-5-yl)-phenyl]-cyclobutyl}-[1,2,4]oxadiazol-5-yl)-pyrazol-1-yl]-N-(tetrahydro-furan-2-ylmethyl)-acetamide] | 7.19 | 8.55
5 | CS(=O)(=O)CCNC(=O)Cn1cc(-c2nc(C3(c4ccc(-c5cnc(N)nc5)cc4)CCC3)no2)cn1 [Example 225, 2-[4-(3-{1-[4-(2-Amino-pyrimidin-5-yl)-phenyl]-cyclobutyl}-[1,2,4]oxadiazol-5-yl)-pyrazol-1-yl]-N-(2-methanesulfonyl-ethyl)-acetamide] | < 5.30 | 9.05
6 | Nc1ncc(-c2ccc(C3(c4noc(-c5cnn(C6CCS(=O)(=O)C6)c5)n4)CCC3)cc2)cn1 (stereo not shown) [Example 226, 5-[4-(1-{5-[1-(1,1-Dioxo-tetrahydro-1lambda6-thiophen-3-yl)-1H-pyrazol-4-yl]-[1,2,4]oxadiazol-3-yl}-cyclobutyl)-phenyl]-pyrimidin-2-ylamine] | 7.35 | 8.92
7 | NCCn1cc(-c2nc(C3(c4ccc(-c5cnc(N)nc5)cc4)CCC3)no2)cn1 [Example 227, 5-[4-(1-{5-[1-(2-Amino-ethyl)-1H-pyrazol-4-yl]-[1,2,4]oxadiazol-3-yl}-cyclobutyl)-phenyl]-pyrimidin-2-ylamine] | 6.62 | 8.59
8 | COCCNC(=O)Cn1cc(-c2nc(C3(c4ccc(-c5cnc(N)nc5)cc4)CCC3)no2)cn1 [Example 228, 2-[4-(3-{1-[4-(2-Amino-pyrimidin-5-yl)-phenyl]-cyclobutyl}-[1,2,4]oxadiazol-5-yl)-pyrazol-1-yl]-N-(2-methoxy-ethyl)-acetamide] | 6.80 | 8.48
9 | CC(=O)NCCn1cc(-c2nc(C3(c4ccc(-c5cnc(N)nc5)cc4)CCC3)no2)cn1 [Example 229, N-{2-[4-(3-{1-[4-(2-Amino-pyrimidin-5-yl)-phenyl]-cyclobutyl}-[1,2,4]oxadiazol-5-yl)-pyrazol-1-yl]-ethyl}-acetamide] | 6.39 | 8.22
10 | CSCCn1cc(-c2nc(C3(c4ccc(-c5cnc(N)nc5)cc4)CCC3)no2)cn1 [Example 230, 5-[4-(1-{5-[1-(2-Methylsulfanyl-ethyl)-1H-pyrazol-4-yl]-[1,2,4]oxadiazol-3-yl}-cyclobutyl)-phenyl]-pyrimidin-2-ylamine] | 7.19 | 8.89
11 | CS(=O)(=O)CCn1cc(-c2nc(C3(c4ccc(-c5cnc(N)nc5)cc4)CCC3)no2)cn1 [Example 231, 5-[4-(1-{5-[1-(2-Methanesulfonyl-ethyl)-1H-pyrazol-4-yl]-[1,2,4]oxadiazol-3-yl}-cyclobutyl)-phenyl]-pyrimidin-2-ylamine] | 7.21 | 8.64
